Results published in PubChem BioAssay AID180 (DTP/NCI, 2004).
Values joined by “and” are separate entries in the source; they are usually repeats but may differ in a detail not shown here. Equal entries are not always repeated.

Tested on: BDF1 mice, Adenocarcinoma 755 s.c., tumor weight T/C
Assay: NCI In Vivo Anticancer Drug Screen. Data for tumor model Adenocarcinoma 755 (subcutaneous) in B6D2F1 (BDF1) mice
Conditions: endpoint: mean tumor weight, higher = larger tumour
How it was run: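 Compound activity was tested in mice carrying transplanted tumors. Survival or tumor size was measured, and each value is the treated-group measurement divided by that of the vehicle-treated control group (T/C).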

[1] = dose: 5.0 mg/kg/injection, schedule: Q01DX011 (ip), vehicle: carboxymethylcellulose (CMC)
[2] = dose: 15.0 mg/kg/injection, schedule: Q01DX011 (ip), vehicle: carboxymethylcellulose (CMC)
[3] = dose: 25.0 mg/kg/injection, schedule: Q01DX011 (ip), vehicle: carboxymethylcellulose (CMC)
[4] = dose: 35.0 mg/kg/injection, schedule: Q01DX011 (ip), vehicle: carboxymethylcellulose (CMC)
[5] = dose: 25.0 mg/kg/injection, schedule: Q01DX011 (ip), vehicle: methylcellulose (MC)
[6] = dose: 75.0 mg/kg/injection, schedule: Q01DX011 (ip), vehicle: methylcellulose (MC)

## C#CCn1cnc2c(Cl)ncnc21
[1]
  T/C: 61 % of control
[2]
  T/C: 48 % of control
[3]
  T/C: 13 % of control
[4]
  T/C: 14 % of control
dose: 50.0 mg/kg/injection, schedule: Q01DX011 (ip), vehicle: carboxymethylcellulose (CMC)
  T/C: 8 % of control
dose: 100.0 mg/kg/injection, schedule: Q01DX011 (ip), vehicle: carboxymethylcellulose (CMC)
  T/C: 3 % of control

## O=C(CCBr)N1CCN(C(=O)CCBr)CC1
dose: 5.6 mg/kg/injection, schedule: Q01DX011 (ip), vehicle: methylcellulose (MC)
  T/C: 103 % of control
dose: 11.25 mg/kg/injection, schedule: Q01DX011 (ip), vehicle: methylcellulose (MC)
  T/C: 89 % of control and 94 % of control
[2]
  T/C: 56 % of control
dose: 22.5 mg/kg/injection, schedule: Q01DX011 (ip), vehicle: methylcellulose (MC)
  T/C: 40 % of control and 65 % of control
dose: 30.0 mg/kg/injection, schedule: Q01DX011 (ip), vehicle: carboxymethylcellulose (CMC)
  T/C: 37 % of control
dose: 45.0 mg/kg/injection, schedule: Q01DX011 (ip), vehicle: methylcellulose (MC)
  T/C: 51 % of control
dose: 60.0 mg/kg/injection, schedule: Q01DX011 (ip), vehicle: carboxymethylcellulose (CMC)
  T/C: 24 % of control
dose: 90.0 mg/kg/injection, schedule: Q01DX011 (ip), vehicle: methylcellulose (MC)
  T/C: 12 % of control

## CCCCn1cnc2c(SSc3ncnc4c3ncn4CCCC)ncnc21
dose: 0.5 mg/kg/injection, schedule: Q01DX011 (ip), vehicle: carboxymethylcellulose (CMC)
  T/C: 94 % of control
dose: 1.0 mg/kg/injection, schedule: Q01DX011 (ip), vehicle: carboxymethylcellulose (CMC)
  T/C: 104 % of control
dose: 2.0 mg/kg/injection, schedule: Q01DX011 (ip), vehicle: carboxymethylcellulose (CMC)
  T/C: 101 % of control
dose: 4.0 mg/kg/injection, schedule: Q01DX011 (ip), vehicle: carboxymethylcellulose (CMC)
  T/C: 77 % of control
dose: 7.5 mg/kg/injection, schedule: Q01DX011 (ip), vehicle: other
  T/C: 32 % of control
dose: 8.0 mg/kg/injection, schedule: Q01DX011 (ip), vehicle: carboxymethylcellulose (CMC)
  T/C: 19 % of control
dose: 15.0 mg/kg/injection, schedule: Q01DX011 (ip), vehicle: other
  T/C: 23 % of control
dose: 16.0 mg/kg/injection, schedule: Q01DX011 (ip), vehicle: carboxymethylcellulose (CMC)
  T/C: 13 % of control
dose: 30.0 mg/kg/injection, schedule: Q01DX011 (ip), vehicle: other
  T/C: 1 % of control
dose: 31.0 mg/kg/injection, schedule: Q01DX011 (ip), vehicle: carboxymethylcellulose (CMC)
  T/C: 6 % of control
dose: 62.0 mg/kg/injection, schedule: Q01DX011 (ip), vehicle: carboxymethylcellulose (CMC)
  T/C: 5 % of control

## CC(C)Cn1cnc2c(=S)nc(N)[nH]c21
dose: 3.9 mg/kg/injection, schedule: Q01DX011 (ip), vehicle: methylcellulose (MC)
  T/C: 5 % of control

## O=C(CCCl)N1CCN(c2ccccc2)CC1
[5]
  T/C: 51 % of control
[6]
  T/C: 61 % of control
dose: 225.0 mg/kg/injection, schedule: Q01DX011 (ip), vehicle: methylcellulose (MC)
  T/C: 60 % of control

## CC(CN1CCN(C)CC1)CN1c2ccccc2Sc2ccc(C(F)(F)F)cc21 (centres undefined)
dose: 17.5 mg/kg/injection, schedule: Q01DX011 (ip), vehicle: methylcellulose (MC)
  T/C: 64 % of control
dose: 35.0 mg/kg/injection, schedule: Q01DX011 (ip), vehicle: methylcellulose (MC)
  T/C: 52 % of control
dose: 70.0 mg/kg/injection, schedule: Q01DX011 (ip), vehicle: methylcellulose (MC)
  T/C: 58 % of control

## Nc1nc2c(ncn2C2CCCC2)c(=O)[nH]1
[3]
  T/C: 88 % of control
dose: 75.0 mg/kg/injection, schedule: Q01DX011 (ip), vehicle: carboxymethylcellulose (CMC)
  T/C: 63 % of control
dose: 225.0 mg/kg/injection, schedule: Q01DX011 (ip), vehicle: carboxymethylcellulose (CMC)
  T/C: 59 % of control

## Nc1ncnc2c1ncn2C1CCCCC1
dose: 34.0 mg/kg/injection, schedule: Q01DX011 (oral), vehicle: carboxymethylcellulose (CMC)
  T/C: 75 % of control
dose: 68.0 mg/kg/injection, schedule: Q01DX011 (oral), vehicle: carboxymethylcellulose (CMC)
  T/C: 120 % of control
dose: 136.0 mg/kg/injection, schedule: Q01DX011 (oral), vehicle: carboxymethylcellulose (CMC)
  T/C: 78 % of control
dose: 272.0 mg/kg/injection, schedule: Q01DX011 (oral), vehicle: carboxymethylcellulose (CMC)
  T/C: 106 % of control

## C=CCC1(CC)C(=O)NC(=O)NC1=O
dose: 10.0 mg/kg/injection, schedule: Q01DX011 (ip), vehicle: carboxymethylcellulose (CMC)
  T/C: 83 % of control
dose: 22.0 mg/kg/injection, schedule: Q01DX011 (ip), vehicle: methylcellulose (MC)
  T/C: 53 % of control
[5]
  T/C: 112 % of control
dose: 42.0 mg/kg/injection, schedule: Q01DX011 (ip), vehicle: methylcellulose (MC)
  T/C: 59 % of control
dose: 50.0 mg/kg/injection, schedule: Q01DX011 (ip), vehicle: methylcellulose (MC)
  T/C: 94 % of control and 79 % of control
dose: 85.0 mg/kg/injection, schedule: Q01DX011 (ip), vehicle: methylcellulose (MC)
  T/C: 23 % of control
dose: 100.0 mg/kg/injection, schedule: Q01DX011 (ip), vehicle: methylcellulose (MC)
  T/C: 61 % of control and 66 % of control
dose: 170.0 mg/kg/injection, schedule: Q01DX011 (ip), vehicle: carboxymethylcellulose (CMC)
  T/C: 49 % of control
dose: 170.0 mg/kg/injection, schedule: Q01DX011 (ip), vehicle: methylcellulose (MC)
  T/C: 4 % of control
dose: 200.0 mg/kg/injection, schedule: Q01DX011 (ip), vehicle: carboxymethylcellulose (CMC)
  T/C: 83 % of control
dose: 200.0 mg/kg/injection, schedule: Q01DX011 (ip), vehicle: methylcellulose (MC)
  T/C: 27 % of control and 42 % of control

## Nc1nc(SCc2ccccc2Cl)c2ncn(C3CCCCC3)c2n1
[5]
  T/C: 180 % of control
[6]
  T/C: 166 % of control

## CC(=O)N(c1ccccc1)c1ccccc1
dose: 3.12 mg/kg/injection, schedule: Q01DX011 (ip), vehicle: other
  T/C: 83 % of control
dose: 6.25 mg/kg/injection, schedule: Q01DX011 (ip), vehicle: other
  T/C: 92 % of control
dose: 12.5 mg/kg/injection, schedule: Q01DX011 (ip), vehicle: other
  T/C: 80 % of control
dose: 25.0 mg/kg/injection, schedule: Q01DX011 (ip), vehicle: other
  T/C: 97 % of control

## CS(=O)(=O)OCCC(=O)NCCCNC(=O)CCOS(C)(=O)=O
dose: 28.0 mg/kg/injection, schedule: Q01DX011 (ip), vehicle: methylcellulose (MC)
  T/C: 85 % of control
dose: 52.0 mg/kg/injection, schedule: Q01DX011 (ip), vehicle: methylcellulose (MC)
  T/C: 49 % of control

## Nc1ccc(C(=O)O)c(O)c1
dose: 37.88 mg/kg/injection, schedule: Q01DX011 (ip), vehicle: carboxymethylcellulose (CMC)
  T/C: 56 % of control
dose: 43.25 mg/kg/injection, schedule: Q01DX011 (ip), vehicle: carboxymethylcellulose (CMC)
  T/C: 55 % of control
dose: 75.75 mg/kg/injection, schedule: Q01DX011 (ip), vehicle: carboxymethylcellulose (CMC)
  T/C: 101 % of control
dose: 86.5 mg/kg/injection, schedule: Q01DX011 (ip), vehicle: carboxymethylcellulose (CMC)
  T/C: 75 % of control
dose: 141.17 mg/kg/injection, schedule: Q01DX011 (ip), vehicle: carboxymethylcellulose (CMC)
  T/C: 157 % of control
dose: 151.5 mg/kg/injection, schedule: Q01DX011 (ip), vehicle: carboxymethylcellulose (CMC)
  T/C: 104 % of control
dose: 173.0 mg/kg/injection, schedule: Q01DX011 (ip), vehicle: carboxymethylcellulose (CMC)
  T/C: 75 % of control
dose: 303.0 mg/kg/injection, schedule: Q01DX011 (ip), vehicle: carboxymethylcellulose (CMC)
  T/C: 71 % of control
dose: 346.0 mg/kg/injection, schedule: Q01DX011 (ip), vehicle: carboxymethylcellulose (CMC)
  T/C: 82 % of control

## CC(C)Cn1cnc2c(SCc3ccccn3)nc(N)nc21
dose: 20.0 mg/kg/injection, schedule: Q01DX011 (ip), vehicle: methylcellulose (MC)
  T/C: 5 % of control
dose: 65.0 mg/kg/injection, schedule: Q01DX011 (ip), vehicle: methylcellulose (MC)
  T/C: 1 % of control

## O=C(O)CCc1c[nH]c2ccc(N(CCCl)CCCl)cc12
dose: 1.2 mg/kg/injection, schedule: Q01DX011 (ip), vehicle: carboxymethylcellulose (CMC)
  T/C: 90 % of control
dose: 2.5 mg/kg/injection, schedule: Q01DX011 (ip), vehicle: carboxymethylcellulose (CMC)
  T/C: 64 % of control
[1]
  T/C: 74 % of control

## COC(=O)C1=CO[C@H](C)[C@@H]2CN3CCc4c([nH]c5ccccc45)[C@@H]3C[C@H]12
dose: 9.0 mg/kg/injection, schedule: Q01DX011 (ip), vehicle: carboxymethylcellulose (CMC)
  T/C: 95 % of control
dose: 17.5 mg/kg/injection, schedule: Q01DX011 (ip), vehicle: carboxymethylcellulose (CMC)
  T/C: 92 % of control
[4]
  T/C: 116 % of control
dose: 70.0 mg/kg/injection, schedule: Q01DX011 (ip), vehicle: carboxymethylcellulose (CMC)
  T/C: 93 % of control

## NC(=O)c1ccc(NC(=O)/C=C/C(=O)Nc2ccc(C(N)=O)cn2)nc1
dose: 0.47 mg/kg/injection, schedule: Q01DX011 (ip), vehicle: carboxymethylcellulose (CMC)
  T/C: 75 % of control
dose: 0.94 mg/kg/injection, schedule: Q01DX011 (ip), vehicle: carboxymethylcellulose (CMC)
  T/C: 69 % of control
dose: 1.87 mg/kg/injection, schedule: Q01DX011 (ip), vehicle: carboxymethylcellulose (CMC)
  T/C: 28 % of control
